For assay [1], the target named is T1, recombinant human RPE65 and LRAT (Homo sapiens, UniProt Q16518).
T1 construct: made in house; host or cells: HEK293 cell clone (homogenate) for RPE65 and LRAT; E. coli TOP10 for CRALBP
T1 sequence (Q16518 2-533 limits assumed): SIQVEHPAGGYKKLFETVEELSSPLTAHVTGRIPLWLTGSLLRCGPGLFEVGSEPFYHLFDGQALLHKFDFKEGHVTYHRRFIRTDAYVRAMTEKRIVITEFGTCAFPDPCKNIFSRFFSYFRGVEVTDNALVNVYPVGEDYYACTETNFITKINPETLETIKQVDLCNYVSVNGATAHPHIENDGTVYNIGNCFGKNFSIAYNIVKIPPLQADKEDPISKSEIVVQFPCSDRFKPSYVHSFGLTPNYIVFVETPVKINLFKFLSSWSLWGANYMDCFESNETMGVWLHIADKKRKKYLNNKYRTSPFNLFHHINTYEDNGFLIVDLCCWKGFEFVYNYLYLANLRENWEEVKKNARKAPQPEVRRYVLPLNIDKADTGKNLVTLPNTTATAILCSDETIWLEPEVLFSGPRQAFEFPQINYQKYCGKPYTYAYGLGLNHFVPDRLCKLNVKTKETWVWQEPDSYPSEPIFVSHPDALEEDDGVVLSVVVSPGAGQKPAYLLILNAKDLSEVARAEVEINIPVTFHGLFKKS
In words: Human in vitro isomerase inhibition reaction. The format is biochemical. To be noted: human in vitro isomerase assay, FIG. 1 and FIG. 2. The procedure:
A homogenate of HEK293 cell clone expressing recombinant human RPE65 and LRAT were the source of the visual enzymes, and exogenous all-trans-retinol (about 20 μM) was used as the substrate. […] The 200 μL Bis-Tris Phosphate buffer (10 mM, pH 7.2) based reaction mixture also contains 0.5% BSA, and 1 mM NaPPi. In this assay, the reaction was carried out at 37° C. in duplicates for one hour and was terminated by addition of 300 μL methanol. The amount of reaction product, 11-cis-retinol, was measured by HPLC analysis following Heptane extraction of the reaction mixture.

A further assay addresses T2, isomerase (Mus musculus, UniProt Q91ZQ5).
T2 construct: The recovery of 11-cis-retinal after bleaching can be used to estimate the activity of isomerase in vivo; from tissue; host or cells: eyes of living mice (CD-1; Balb/c also named)
T2 sequence (Q91ZQ5 1-533): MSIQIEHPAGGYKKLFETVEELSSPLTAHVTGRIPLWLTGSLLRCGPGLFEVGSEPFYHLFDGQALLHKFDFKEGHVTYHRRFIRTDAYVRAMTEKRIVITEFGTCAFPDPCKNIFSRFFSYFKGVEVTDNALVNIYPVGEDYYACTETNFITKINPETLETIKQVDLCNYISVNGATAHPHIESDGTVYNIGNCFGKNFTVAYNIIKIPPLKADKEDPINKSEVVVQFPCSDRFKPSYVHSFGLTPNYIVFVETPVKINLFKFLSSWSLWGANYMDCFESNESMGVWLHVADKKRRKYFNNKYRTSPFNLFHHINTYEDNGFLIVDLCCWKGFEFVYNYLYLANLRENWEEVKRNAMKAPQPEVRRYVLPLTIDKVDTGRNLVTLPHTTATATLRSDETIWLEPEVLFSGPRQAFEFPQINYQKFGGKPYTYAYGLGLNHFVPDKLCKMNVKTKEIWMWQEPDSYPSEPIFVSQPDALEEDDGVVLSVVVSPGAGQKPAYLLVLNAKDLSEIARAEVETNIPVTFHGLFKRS
In words: In vivo murine isomerase assay. Set-up: species or system mice. The settings on record: for inhibition in vivo at 1 mg/kg: mouse, po, 4 h, read-out: % Inibition 1 mg/kg, 4 h. The procedure: The capability of compounds described herein to inhibit isomerase was determined by an in vivo murine isomerase assay. Brief exposure of the eye to intense light (“photobleaching” of the visual pigment or simply “bleaching”) is known to photo-isomerize almost all 11-cis-retinal in the retina. The recovery of 11-cis-retinal after bleaching can be used to estimate the activity of isomerase in vivo. Delayed recovery, as represented by lower 11-cis-retinal oxime levels, indicates inhibition of isomerization reaction. Procedures were performed essentially as described by Golczak et al., Proc. Natl. Acad. Sci. […] Mice were gavaged with the compounds described in the present disclosure. After about 2-24 hours in the dark, the mice were exposed to photobleaching of about 5,000 lux of white light for 10 minutes. The mice were allowed to recover for about 2 hours in the dark. The animals were then sacrificed by carbon dioxide inhalation. Retinoids were extracted from the eye and the regeneration of 11-cis-retinal was assessed at various time intervals. […] After the mice were sacrificed, the eyes were immediately removed and placed in liquid nitrogen for storage. The eyes were placed in about 500 μL of bis-tris propane buffer (10 mM, pH˜7.3) and about 20 μl of 0.8M hydroxylamine (pH˜7.3). The eyes were cut up into small pieces with small iris scissors and then thoroughly homogenized at 30000 rpm with a mechanical homogenizer (Polytron PT 1300 D) in the tube until no visible tissue remains. About 500 μL of methanol and about 500 μL of heptane was added to each tube. The tubes were attached to a vortexer so that the contents are mixed thoroughly for about 15 minutes in room temperature. […] The samples were analyzed on an Agilent 1100 HPLC system with normal phase column: SILICA (Beckman Coutlier, dp 5 μm, […]). […] Loading volume for each sample was about 100 μl; detection wavelength is 360 nm. The area under the curve for 11-cis-retinal oxime was calculated by Agilent Chemstation software and recorded manually. Data processing was performed using Prizm software. Positive control mice (no compound administered) were sacrificed fully dark-adapted and the eye retinoids analyzed. Light (bleached) control mice (no compound administered) were sacrificed and retinoids isolated and analyzed immediately after light treatment. A time course study was also performed to determine the isomerase inhibitory activity of compounds of the present disclosure. Female or male mice (such as Balb/c mice) (at least 4/group) received 0 to about 5 mg of compounds (in water) per kg bodyweight orally, by gavage. The animals were then “photo-bleached” (about 5000 Lux white light for about 10 minutes) at about 2, 4, 8, 16 and 24 hours after dosing, and returned to darkness to allow recovery of the 11-cis-retinal content of the eyes. Mice were sacrificed about 2 hours after bleaching, eyes were enucleated, and retinoid content was analyzed by HPLC. A dose response in vivo isomerase inhibition study is performed with compounds of the present disclosure. Male or female mice (such as Balb/c mice)(at least about 8/group) are dosed orally with about 0.01 to 25 mg/kg of the compounds of HCl salts of the compounds in sterile water as solution, and photobleached about 4 hours after dosing. Recovery and retinoid analysis is performed as described above. Dark control mice are vehicle-only treated, sacrificed fully dark adapted without light treatment, and analyzed. […]

On to `NCCC(O)c1cccc(NS(=O)(=O)C2CCCCC2)c1` (stereo not shown) [Example 5, N-(3-(3-amino-1-hydroxypropyl)phenyl)cyclohexanesulfonamide], for which the “inhibition of 11-cis-retinol production” value in assay [1] is recorded as “dose-dependent inhibition”. The inhibition in vivo at 1 mg/kg at isomerase is -11.7 ± 4.36%.

Take `NCCCc1cccc(NS(=O)(=O)C2CCCCC2)c1` [Example 6, N-(3-(3-aminopropyl)phenyl)cyclohexanesulfonamide]: the “inhibition of 11-cis-retinol production” value in assay [1] is “dose-dependent inhibition”. Moreover, at isomerase (1 mg/kg oral, 24 h after dosing, inhibition of 11-cis-retinal (oxime) recovery after photobleach), the “% Inibition 1 mg/kg, 24 h” value came out at 48.70 ± 2.71%. Besides, on isomerase, the inhibition in vivo at 1 mg/kg was -11.9 ± 18.2%.

As for `NCCCc1cccc(NS(=O)(=O)c2ccccc2)c1` [Example 99, N-(3-(3-Aminopropyl)phenyl)benzenesulfonamide], on isomerase, the inhibition in vivo at 1 mg/kg is -3.83 ± 5.52%.

As to `[2H]C1(CNc2cccc(C(O)CCN)c2)CCCCC1` (stereo not shown) [Example 91, 3-Amino-1-(3-((1-deuterocyclohexyl)methylamino)phenyl)propan-1-ol], the inhibition in vivo at 1 mg/kg on isomerase came out at 95.5 ± 1.07%.

Source of the values: patent publication US9193669B2, “Compounds for treating ophthalmic diseases and disorders” (Acucela Inc., priority 2008, dated 2015).
